# Literature values in US20050209315A1, “Bioavailable nutritional supplement and method of treatment of malabsorption” (priority 2004, published 2005).
# Conditions: relative to alpha tocopherol
substance,measurement,value
alpha-tocotrienol [Alpha tocotrienol],more antioxidant activity than alpha tocopherol,40-60%
